Data taken from ChEMBL document CHEMBL1140552, “Preparation, characterization and in vivo conversion of new water-soluble sulfenamide prodrugs of carbamazepine” (Bioorg Med Chem Lett, 2007).

Tests used:
[1] = system: Rattus norvegicus; assay: AUC in Sprague-Dawley rat assessed as carbamazepine level at 4.54 mg/187 g, iv; assay type: ADME, organism-based, Plasma; settings: in vivo
[2] = system: Rattus norvegicus; assay: AUC in Sprague-Dawley rat assessed as carbamazepine level at 5.50 mg/227 g, iv; assay type: ADME, organism-based, Plasma; settings: in vivo
[3] = system: Rattus norvegicus; assay: Cmax in Sprague-Dawley rat assessed as carbamazepine level at 4.54 mg/187 g, iv; assay type: ADME, organism-based; set-up: route intravenous; settings: in vivo
[4] = system: Rattus norvegicus; assay: Cmax in Sprague-Dawley rat assessed as carbamazepine level at 5.50 mg/227 g, iv; assay type: ADME, organism-based; set-up: route intravenous; settings: in vivo
[5] = Solubility at pH 2.6; assay type: physicochemical; settings: buffer

AUC [1]: 964 µg/min/mL
AUC [2]: 545 µg/min/mL
Cmax [3]: 14100 ng/mL
Cmax [4]: 16300 ng/mL
solubility [5]: 100 mg/mL
SMILES: NCCSNC(=O)N1c2ccccc2C=Cc2ccccc21.O=C(O)C(F)(F)F
